Measurements reported in ChEMBL document CHEMBL3817755, “Design, synthesis and biological evaluation of indazolepyrimidine based derivatives as anticancer agents with anti-angiogenic and antiproliferative activities” (Medchemcomm, 2016).

Columns and labels:
Assay type in all cases: functional
[1] = Growth inhibition of human OVCAR8 cells at 10 uM after 48 hrs by SRB assay; conditions: OVCAR-8, 48 h, read-out: GI
[2] = Growth inhibition of human HCT116 cells at 10 uM after 48 hrs by SRB assay; conditions: HCT-116, 48 h, read-out: GI
SK-MEL-5 = assay: Growth inhibition of human SK-MEL-5 cells at 10 uM after 48 hrs by SRB assay; conditions: SK-MEL-5, 48 h, read-out: GI
[3] = Growth inhibition of human COLO205 cells at 10 uM after 48 hrs by SRB assay; conditions: COLO 205, 48 h, read-out: GI
[4] = Growth inhibition of human SKOV3 cells at 10 uM after 48 hrs by SRB assay; conditions: SK-OV-3, 48 h, read-out: GI
[5] = Growth inhibition of human RXF393 cells at 10 uM after 48 hrs by SRB assay; conditions: RXF 393, 48 h, read-out: GI
A549 = assay: Growth inhibition of human A549/ATCC cells at 10 uM after 48 hrs by SRB assay; conditions: A549, 48 h, read-out: GI
[6] = Growth inhibition of human OVCAR5 cells at 10 uM after 48 hrs by SRB assay; conditions: OVCAR-5, 48 h, read-out: GI
CCRF-CEM = assay: Growth inhibition of human CCRF-CEM cells at 10 uM after 48 hrs by SRB assay; conditions: read-out: GI
U-251 = assay: Growth inhibition of human U251 cells at 10 uM after 48 hrs by SRB assay; conditions: U-251, 48 h, read-out: GI
KM12 = assay: Growth inhibition of human KM12 cells at 10 uM after 48 hrs by SRB assay; conditions: KM12, 48 h, read-out: GI
SR = assay: Growth inhibition of human SR cells at 10 uM after 48 hrs by SRB assay; conditions: read-out: GI
MCF7 = assay: Growth inhibition of human MCF7 cells at 10 uM after 48 hrs by SRB assay; conditions: MCF7, 48 h, read-out: GI
A498 = assay: Growth inhibition of human A498 cells at 10 uM after 48 hrs by SRB assay; conditions: A498, 48 h, read-out: GI
[7] = Growth inhibition of human OVCAR4 cells at 10 uM after 48 hrs by SRB assay; conditions: OVCAR-4, 48 h, read-out: GI
[8] = Growth inhibition of human IGROV1 cells at 10 uM after 48 hrs by SRB assay; conditions: IGROV-1, 48 h, read-out: GI
[9] = Growth inhibition of human HL-60(TB) cells at 10 uM after 48 hrs by SRB assay; conditions: HL-60, 48 h, read-out: GI
NCI-H522 = assay: Growth inhibition of human NCI-H522 cells at 10 uM after 48 hrs by SRB assay; conditions: NCI-H522, 48 h, read-out: GI
[10] = Growth inhibition of human SF268 cells at 10 uM after 48 hrs by SRB assay; conditions: SF-268, 48 h, read-out: GI
[11] = Growth inhibition of human BT549 cells at 10 uM after 48 hrs by SRB assay; conditions: BT-549, 48 h, read-out: GI
[12] = Growth inhibition of human LOXIMVI cells at 10 uM after 48 hrs by SRB assay; conditions: LOX IMVI, read-out: GI
T47D = assay: Growth inhibition of human T47D cells at 10 uM after 48 hrs by SRB assay; conditions: read-out: GI
M14 = assay: Growth inhibition of human M14 cells at 10 uM after 48 hrs by SRB assay; conditions: M14, 48 h, read-out: GI
MDA-MB-231 = assay: Growth inhibition of human MDA-MB-231 cells at 10 uM after 48 hrs by SRB assay; conditions: MDA-MB-231, 48 h, read-out: GI
[13] = Growth inhibition of human HCC2998 cells at 10 uM after 48 hrs by SRB assay; conditions: HCC 2998, 48 h, read-out: GI
SN12C = assay: Growth inhibition of human SN12C cells at 10 uM after 48 hrs by SRB assay; conditions: read-out: GI
K562 = assay: Growth inhibition of human K562 cells at 10 uM after 48 hrs by SRB assay; conditions: K562, 48 h, read-out: GI
[14] = Growth inhibition of human DU145 cells at 10 uM after 48 hrs by SRB assay; conditions: DU-145, 48 h, read-out: GI
[15] = Growth inhibition of human Caki1 cells at 10 uM after 48 hrs by SRB assay; conditions: CAKI-1, 48 h, read-out: GI
[16] = Growth inhibition of human Hs 578T cells at 10 uM after 48 hrs by SRB assay; conditions: read-out: GI
NCI-H460 = assay: Growth inhibition of human NCI-H460 cells at 10 uM after 48 hrs by SRB assay; conditions: NCI-H460, 48 h, read-out: GI
[17] = Growth inhibition of human SNB75 cells at 10 uM after 48 hrs by SRB assay; conditions: SNB-75, 48 h, read-out: GI
[18] = Growth inhibition of human MOLT4 cells at 10 uM after 48 hrs by SRB assay; conditions: MOLT-4, 48 h, read-out: GI
NCI-H226 = assay: Growth inhibition of human NCI-H226 cells at 10 uM after 48 hrs by SRB assay; conditions: NCI-H226, 48 h, read-out: GI
[19] = Growth inhibition of human SF295 cells at 10 uM after 48 hrs by SRB assay; conditions: SF-295, 48 h, read-out: GI
MDA-MB-435 = assay: Growth inhibition of human MDA-MB-435 cells at 10 uM after 48 hrs by SRB assay; conditions: MDA-MB-435, 48 h, read-out: GI
HT-29 = assay: Growth inhibition of human HT-29 cells at 10 uM after 48 hrs by SRB assay; conditions: HT-29, 48 h, read-out: GI
NCI-H23 = assay: Growth inhibition of human NCI-H23 cells at 10 uM after 48 hrs by SRB assay; conditions: NCI-H23, 48 h, read-out: GI
786-0 = assay: Growth inhibition of human 786-0 cells at 10 uM after 48 hrs by SRB assay; conditions: 786-0, 48 h, read-out: GI
[20] = Growth inhibition of human PC3 cells at 10 uM after 48 hrs by SRB assay; conditions: PC-3, 48 h, read-out: GI
ACHN = assay: Growth inhibition of human ACHN cells at 10 uM after 48 hrs by SRB assay; conditions: read-out: GI
[21] = Growth inhibition of human OVCAR3 cells at 10 uM after 48 hrs by SRB assay; conditions: OVCAR-3, 48 h, read-out: GI
Malme-3M = assay: Growth inhibition of human MALME-3M cells at 10 uM after 48 hrs by SRB assay; conditions: read-out: GI

Clc1ccc(Nc2nccc(Nc3ccc4[nH]ncc4c3)n2)cc1
inhibition of growth at 10 µM [1]: 78%
inhibition of growth at 10 µM [2]: 61%
inhibition of growth at 10 µM (SK-MEL-5): 74%
inhibition of growth at 10 µM [3]: 58%
inhibition of growth at 10 µM [4]: 12%
inhibition of growth at 10 µM [5]: 65%
inhibition of growth at 10 µM (A549): 50%
inhibition of growth at 10 µM [6]: 35%
inhibition of growth at 10 µM (CCRF-CEM): 95%
inhibition of growth at 10 µM (U-251): 41%
inhibition of growth at 10 µM (KM12): 91%
inhibition of growth at 10 µM (SR): 97%
inhibition of growth at 10 µM (MCF7): 75%
inhibition of growth at 10 µM (A498): 61%
inhibition of growth at 10 µM [7]: 51%
inhibition of growth at 10 µM [8]: 53%
inhibition of growth at 10 µM [9]: 48%
inhibition of growth at 10 µM (NCI-H522): 79%
inhibition of growth at 10 µM [10]: 40%
inhibition of growth at 10 µM [11]: 47%
inhibition of growth at 10 µM [12]: 55%
inhibition of growth at 10 µM (T47D): 70%
inhibition of growth at 10 µM (M14): 56%
inhibition of growth at 10 µM (MDA-MB-231): 31%
inhibition of growth at 10 µM [13]: 6%
inhibition of growth at 10 µM (SN12C): 48%
inhibition of growth at 10 µM (K562): 108%
inhibition of growth at 10 µM [14]: 50%
inhibition of growth at 10 µM [15]: 48%
inhibition of growth at 10 µM [16]: 38%
inhibition of growth at 10 µM (NCI-H460): 59%
inhibition of growth at 10 µM [17]: 32%
inhibition of growth at 10 µM [18]: 77%
inhibition of growth at 10 µM (NCI-H226): 72%
inhibition of growth at 10 µM [19]: 29%
inhibition of growth at 10 µM (MDA-MB-435): 44%
inhibition of growth at 10 µM (HT-29): 83%
inhibition of growth at 10 µM (NCI-H23): 54%
inhibition of growth at 10 µM (786-0): 43%
inhibition of growth at 10 µM [20]: 75%
inhibition of growth at 10 µM (ACHN): 53%
inhibition of growth at 10 µM [21]: 48%
inhibition of growth at 10 µM (Malme-3M): 12%
